US8163766B2, “Beta-secretase modulators and methods of use” (Amgen Inc., priority 2005, dated 2012)

Test system: Aβ 40 in conditioned media of cells stably expressing Amyloid Precursor Protein (APP)
Assay: BACE Cell-Based Assay (Aβ40 in conditioned medium, sandwich ELISA)
Details: 24 hours of incubation with the test compounds, Aβ 40 by sandwich ELISA, read-out: IC50 values in the cell-based assay (inhibition of Aβ 40)
Procedure: The cell-based assay measures inhibition or reduction of Aβ40 in conditioned medium of test compound treated cells, which express amyloid precursor protein.
Cells stably expressing Amyloid Precursor Protein (APP) were plated at a density of 40K cells/well in 96 well plates (Costar). The cells were cultivated for 24 h at 37° C. and 5% CO2 in DMEM supplemented with 10% FBS. The test compounds were then added to cells in 10-point dose response concentrations with the starting concentration being either 100 μM or 10 μM. The compounds were diluted from stock solutions in DMSO and the final DMSO concentration of the test compounds on cells was 0.1%. After 24 hours of incubation with the test compounds the supernatant conditioned media was collected and the Aβ 40 levels were determined using a sandwich ELISA. The IC50 of the compound was calculated from the percent of control or percent inhibition of Aβ 40 as a function of the concentration of the test compound.
The sandwich ELISA to detect Aβ 40 was performed in 96 well microtiter plates, which were pre-treated with goat anti-rabbit IgG (Pierce). The capture and detecting antibody pair that were used to detect Aβ 40 from cell supernatants were affinity purified pAb40 (Biosource) and biotinylated 6E10 (Signet Labs Inc.), respectively. The optimal concentration for the pAb40 antibody was 3 μg/ml in Superblock/TBS (Pierce) that was supplemented with 0.05% Tween 20 (Sigma). Optimal concentration for the detection antibody 6E10-biotinylated was […] in Superblock/TBS (Pierce) that had been supplemented with 2% normal goat serum and 2% normal mouse serum.
Cellular supernatants were incubated with the capture antibody for 3 h at 4° C., followed by 3 wash steps in TBS-tween (0.05%). The detecting antibody incubation was for 2 h at 4° C., again followed by the wash steps as described previously. The final readout of the ELISA is Time-Resolved Fluorescence (counts per minute) using Delfia reagents Streptavidin-Europium and Enhancement solutions (Perkin Elmer) and the Victor 2 multilabel counter (Perkin Elmer).

| Compound | IC50 |
| --- | --- |
| CCc1ccc2c(c1)C(NC[C@@H](O)[C@H](Cc1ccccc1)NC(=O)c1ccc(=O)n(C3CCC(c4ccccc4)C3)c1)CC1(CCCC1)O2 (some centres unmarked) [Example 10] | ≤ 5 µM |
| CCc1ccc2c(c1)C(NC[C@@H](O)[C@H](Cc1ccccc1)NC(=O)c1ccc(=O)n(C3CCCC(c4ccccc4)C3)c1)CC1(CCCC1)O2 (some centres unmarked) [Example 12] | ≤ 5 µM |
| CCc1ccc2c(c1)C(NC[C@@H](O)[C@H](Cc1ccccc1)NC(=O)c1cc(N3CCCC3)c(=O)n(C3CCCC3)c1)CC1(CCCC1)O2 (stereo partly drawn) [Example 17, 1-cyclopentyl-N-((2S,3R)-4-(6-ethyl-2,2-spirocyclopentylchroman-4-ylamino)-3-hydrodroxy-1-phenylbutan-2-yl)-6-OXO-5-(pyrrolidin-1-yl)-1,6-dihydropyridine-3-carboxamide] | ≤ 5 µM |
| CCc1ccc2c(c1)C(NC[C@@H](O)[C@H](Cc1ccccc1)NC(=O)c1cc(NC(C)C)c(=O)n(C3CCCC3)c1)CC1(CCCC1)O2 (stereo partly drawn) [Example 18, 1-cyclopentyl-N-((2S,3R)-4-(6-ethyl-2,2-spirocyclopentylchroman-4-ylamino)-3-hydrodroxy-1-phenylbutan-2-yl)-5-(isopropylamino)-6-oxo-1,6-dihydropyridine-3-carboxamide] | ≤ 5 µM |
| CCc1ccc2c(c1)C(NC[C@@H](O)[C@H](Cc1ccccc1)NC(=O)c1cc(C3CCCCO3)c(=O)n(C3CCCC3)c1)CC1(CCCC1)O2 (stereo partly drawn) [Example 23, 1-cyclopentyl-N-((2S,3R)-4-(6-ethyl-2,2-spirocyclopentylchroman-4-ylamino)-3-hydrodroxy-1-phenylbutan-2-yl)-6-OXO-5-(tetrahydro-2H-pyran-2-yl)-1,6-dihydropyridine-3-carboxamide] | ≤ 5 µM |
| CCc1ccc2c(c1)C(NC[C@@H](O)[C@H](Cc1ccccc1)NC(=O)c1cc(C3CCCO3)c(=O)n(C3CCCC3)c1)CC1(CCCC1)O2 (stereo partly drawn) [Example 24, 1-cyclopentyl-N-((2S,3R)-4-(6-ethyl-2,2-spirocyclopentylchroman-4-ylamino)-3-hydrodroxy-1-phenylbutan-2-yl)-6-OXO-5-(tetrahydrofuran-2-yl)-1,6-dihydropyridine-3-carboxamide] | ≤ 5 µM |
| CCc1ccc2c(c1)[C@@H](NC[C@@H](O)[C@H](Cc1ccccc1)NC(=O)C1CN(Cc3ccccc3)CCO1)CC1(CCCC1)O2 (stereo partly drawn) [Example 29, 4-Benzyl-N-((2S,3R)-4-((S)-6-ethyl-2,2-spirocyclopentylchroman-4-ylamino)-3-hydroxy-1-phenylbutan-2-yl) morpholine-2-carboxamide] | ≤ 5 µM |
| CC(C)c1ccc2c(c1)[C@@H](NC[C@@H](O)[C@H](Cc1ccccc1)NC(=O)C1CCCN(c3ccccn3)C1)CC1(CCCC1)O2 (stereo partly drawn) [Example 32, N-((2S,3R)-3-hydroxy-4-((S)-6-isopropyl-2,2-spirocyclopentylchroman-4-ylamino)-1-phenylbutan-2-yl)-1-(pyridin-2-yl)piperidine-3-carboxamide] | ≤ 5 µM |
| CCc1ccc2c(c1)[C@@H](NC[C@@H](O)[C@H](Cc1ccccc1)NC(=O)C1CN(C3CCCC3)c3ccccc3O1)CC1(CCCC1)O2 (stereo partly drawn) [Example 43, 4-Cyclopentyl-N-((2S,3R)-4-((S)-6-ethyl-2,2-spirocyclopentylchroman-4-ylamino)-3-hydroxy-1-phenylbutan-2-yl)-3,4-dihydro-2H-benzo[b][1,4]oxazine-2-carboxamide] | ≤ 5 µM |
| CCc1ccc2c(c1)[C@@H](NC[C@@H](O)[C@H](Cc1ccccc1)NC(=O)[C@H]1CN(C)c3ccccc3O1)CC1(CCCC1)O2 [Example 47, (R)—N-((2S,3R)-4-((S)-6-ethyl-2,2-spirocyclopentylchroman-4-ylamino)-3-hydroxy-1-phenylbutan-2-yl)-4-methyl-3,4-dihydro-2H-benzo[b][1,4]oxazine-2-carboxamide] | ≤ 5 µM |
| CCc1ccc2c(c1)[C@@H](NC[C@@H](O)[C@H](Cc1ccccc1)NC(=O)C1CN(C)c3ccccc3O1)CC1(CCCC1)O2 (stereo partly drawn) [Example 48, (S)—N-((2S,3R)-4-((S)-6-ethyl-2,2-spirocyclopentylchroman-4-ylamino)-3-hydroxy-1-phenylbutan-2-yl)-4-methyl-3,4-dihydro-2H-benzo[b][1,4]oxazine-2-carboxamide] | ≤ 5 µM |
| CCc1ccc2c(c1)[C@@H](NC[C@@H](O)[C@H](Cc1ccccc1)NC(=O)C1Cc3ccccc3N(C)C1)CC1(CCCC1)O2 (stereo partly drawn) [Example 49, N-((2S,3R)-4-((S)-6-ethyl-2,2-spirocyclopentylchroman-4-ylamino)-3-hydroxy-1-phenylbutan-2-yl)-1-methyl-1,2,3,4-tetrahydroquinoline-3-carboxamide] | ≤ 5 µM |
| CCc1ccc2c(c1)[C@@H](NC[C@@H](O)[C@H](Cc1ccccc1)NC(=O)[C@H]1CN(C(C)=O)c3ccccc3O1)CC1(CCCC1)O2 [Example 50, (R)-4-acetyl-N-((2S,3R)-4-((S)-6-ethyl-2,2-spirocyclopentylchroman-4-ylamino)-3-hydroxy-1-phenylbutan-2-yl)-3,4-dihydro-2H-benzo[b][1,4]oxazine-2-carboxamide] | ≤ 5 µM |

Next, values leading:

| IC50 | Compound |
| --- | --- |
| ≤ 5 µM | CCc1ccc2c(c1)C(NC[C@@H](O)[C@H](Cc1ccccc1)NC(=O)c1cc(C#N)c(=O)n(C3CCCC3)c1)CC1(CCCC1)O2 (some centres unmarked) [Example 1] |
| ≤ 5 µM | CCc1ccc2c(c1)C(NC[C@@H](O)[C@H](Cc1ccccc1)NC(=O)c1ccc(=O)n(C3CCCC3)c1)CC1(CCCC1)O2 (some centres unmarked) [Example 2] |
| ≤ 5 µM | CCc1ccc2c(c1)C(NC[C@@H](O)[C@H](Cc1ccccc1)NC(=O)c1cc(-c3ccccc3F)c(=O)n(C3CCCC3)c1)CC1(CCCC1)O2 (some centres unmarked) [Example 3] |
| ≤ 5 µM | CCc1ccc2c(c1)C(NC[C@@H](O)[C@H](Cc1ccccc1)NC(=O)c1cc(-c3ccccn3)c(=O)n(C3CCCC3)c1)CC1(CCCC1)O2 (some centres unmarked) [Example 5] |
| ≤ 5 µM | CCc1ccc2c(c1)C(NC[C@@H](O)[C@H](Cc1ccccc1)NC(=O)c1cc(-n3cccn3)c(=O)n(C3CCCC3)c1)CC1(CCCC1)O2 (some centres unmarked) [Example 6] |
| ≤ 5 µM | CCc1ccc2c(c1)C(NC[C@@H](O)[C@H](Cc1ccccc1)NC(=O)c1cc(-c3ccc(F)cc3)c(=O)n(C3CCCC3)c1)CC1(CCCC1)O2 (some centres unmarked) [Example 7] |
| ≤ 5 µM | CCc1ccc2c(c1)C(NC[C@@H](O)[C@H](Cc1ccccc1)NC(=O)c1cc(-c3ccccc3)c(=O)n(C3CCCC3)c1)CC1(CCCC1)O2 (some centres unmarked) [Example 8] |
| ≤ 5 µM | CCc1ccc2c(c1)C(NC[C@@H](O)[C@H](Cc1ccccc1)NC(=O)c1cc(-c3cccc(F)c3)c(=O)n(C3CCCC3)c1)CC1(CCCC1)O2 (some centres unmarked) [Example 9] |
| ≤ 5 µM | CCc1ccc2c(c1)C(NC[C@@H](O)[C@H](Cc1ccccc1)NC(=O)c1cc(-c3cccnc3)c(=O)n(C3CCCC3)c1)CC1(CCCC1)O2 (stereo partly drawn) [Example 14, 1-cyclopentyl-N-((2S,3R)-4-(6-ethyl-2,2-spirocyclopentylchroman-4-ylamino)-3-hydrodroxy-1-phenylbutan-2-yl)-6-OXO-5-(pyridine-3-yl)-1,6-dihydropyridine-3-carboxamide] |
| ≤ 5 µM | CCc1ccc2c(c1)C(NC[C@@H](O)[C@H](Cc1ccccc1)NC(=O)c1cc(-c3ccncc3)c(=O)n(C3CCCC3)c1)CC1(CCCC1)O2 (stereo partly drawn) [Example 15, 1-cyclopentyl-N-((2S,3R)-4-(6-ethyl-2,2-spirocyclopentylchroman-4-ylamino)-3-hydrodroxy-1-phenylbutan-2-yl)-6-OXO-5-(pyridin-4-yl)-1,6-dihydropyridine-3-carboxamide] |
| ≤ 5 µM | CCc1ccc2c(c1)C(NC[C@@H](O)[C@H](Cc1ccccc1)NC(=O)c1cc(-c3cncnc3)c(=O)n(C3CCCC3)c1)CC1(CCCC1)O2 (stereo partly drawn) [Example 16, 1-cyclopentyl-N-((2S,3R)-4-(6-ethyl-2,2-spirocyclopentylchroman-4-ylamino)-3-hydrodroxy-1-phenylbutan-2-yl)-6-OXO-5-(pyrimidin-5-yl)-1,6-dihydropyridine-3-carboxamide] |
| ≤ 5 µM | CCc1ccc2c(c1)C(NC[C@@H](O)[C@H](Cc1ccccc1)NC(=O)c1cc(N(C)C)c(=O)n(C3CCCC3)c1)CC1(CCCC1)O2 (stereo partly drawn) [Example 19, 1-cyclopentyl-5-(dimethylamino)-N-((2S,3R)-4-(6-ethyl-2,2-spirocyclopentylchroman-4-ylamino)-3-hydrodroxy-1-phenylbutan-2-yl)-6-oxo-1,6-dihydropyridine-3-carboxamide] |
| ≤ 5 µM | CCc1ccc2c(c1)C(NC[C@@H](O)[C@H](Cc1ccccc1)NC(=O)c1cc(-c3cnccn3)c(=O)n(C3CCCC3)c1)CC1(CCCC1)O2 (stereo partly drawn) [Example 22, 1-cyclopentyl-N-((2S,3R)-4-(6-ethyl-2,2-spirocyclopentylchroman-4-ylamino)-3-hydrodroxy-1-phenylbutan-2-yl)-6-oxo-5-(pyrazin-2-yl)-1,6-dihydropyridine-3-carboxamide] |
